# Measurements taken from the kinase profiling compilation of Christmann-Franck et al. (2016).
# Tests used:
# Assay in all cases: KINOMEscan competition binding
# Details in all cases: compound 10.0 µM
# [1] = target: PAK3 (human) (UniProt O75914)
# [2] = target: MAPK4 (human) (UniProt P31152)
# [3] = target: NEK6 (human) (UniProt Q9HC98)
# [4] = target: PRKG1 (human) (UniProt Q13976)
# [5] = tested on: KIT (human), P10721 [D816V]
# [6] = target: RPS6KA3 KD1 (human) (UniProt P51812)
# [7] = target: ACVR2B (human) (UniProt Q13705)
# [8] = target: FGR (human) (UniProt P09769)
# [9] = target: GAK (human) (UniProt O14976)
# [10] = target: RPS6KA5 KD1 (human) (UniProt O75582)
# [11] = target: PRKCH (human) (UniProt P24723)
# [12] = target: NEK7 (human) (UniProt Q8TDX7)
# [13] = target: CDK11B (human) (UniProt P21127)
# [14] = target: PRKX (human) (UniProt P51817)
# [15] = tested on: ABL1 (human), P00519 [M351T]
# [16] = target: ROS1 (human) (UniProt P08922)
# [17] = target: ALK (human) (UniProt Q9UM73)
# [18] = target: MAP3K5 (human) (UniProt Q99683)
# [19] = target: CAMKK2 (human) (UniProt Q96RR4)
# [20] = target: NEK5 (human) (UniProt Q6P3R8)
# [21] = target: PIK3C2B (human) (UniProt O00750)
# [22] = target: DAPK1 (human) (UniProt P53355)
# [23] = target: IGF1R (human) (UniProt P08069)
# [24] = target: CDKL2 (human) (UniProt Q92772)
# [25] = target: SIK2 (human) (UniProt Q9H0K1)
# [26] = target: MYO3A (human) (UniProt Q8NEV4)
# [27] = target: DDR2 (human) (UniProt Q16832)
# [28] = target: EPHB3 (human) (UniProt P54753)
# [29] = target: LIMK2 (human) (UniProt P53671)
# [30] = target: CHEK1 (human) (UniProt O14757)
# [31] = target: PIP5K1A (human) (UniProt Q99755)
# [32] = target: DAPK3 (human) (UniProt O43293)
# [33] = target: GSK3A (human) (UniProt P49840)
# [34] = target: CaMK1 (human) (UniProt Q14012)
# [35] = target: EPHA2 (human) (UniProt P29317)
# [36] = target: RPS6KA4 KD1 (human) (UniProt O75676)
# [37] = target: NUAK2 (human) (UniProt Q9H093)
# [38] = target: MAP2K1 (human) (UniProt Q02750)
# [39] = target: FER (human) (UniProt P16591)
# [40] = target: MAPK1 (human) (UniProt P28482)
# SIK2 (human), sequence (Q9H0K1 whole entry, looked up): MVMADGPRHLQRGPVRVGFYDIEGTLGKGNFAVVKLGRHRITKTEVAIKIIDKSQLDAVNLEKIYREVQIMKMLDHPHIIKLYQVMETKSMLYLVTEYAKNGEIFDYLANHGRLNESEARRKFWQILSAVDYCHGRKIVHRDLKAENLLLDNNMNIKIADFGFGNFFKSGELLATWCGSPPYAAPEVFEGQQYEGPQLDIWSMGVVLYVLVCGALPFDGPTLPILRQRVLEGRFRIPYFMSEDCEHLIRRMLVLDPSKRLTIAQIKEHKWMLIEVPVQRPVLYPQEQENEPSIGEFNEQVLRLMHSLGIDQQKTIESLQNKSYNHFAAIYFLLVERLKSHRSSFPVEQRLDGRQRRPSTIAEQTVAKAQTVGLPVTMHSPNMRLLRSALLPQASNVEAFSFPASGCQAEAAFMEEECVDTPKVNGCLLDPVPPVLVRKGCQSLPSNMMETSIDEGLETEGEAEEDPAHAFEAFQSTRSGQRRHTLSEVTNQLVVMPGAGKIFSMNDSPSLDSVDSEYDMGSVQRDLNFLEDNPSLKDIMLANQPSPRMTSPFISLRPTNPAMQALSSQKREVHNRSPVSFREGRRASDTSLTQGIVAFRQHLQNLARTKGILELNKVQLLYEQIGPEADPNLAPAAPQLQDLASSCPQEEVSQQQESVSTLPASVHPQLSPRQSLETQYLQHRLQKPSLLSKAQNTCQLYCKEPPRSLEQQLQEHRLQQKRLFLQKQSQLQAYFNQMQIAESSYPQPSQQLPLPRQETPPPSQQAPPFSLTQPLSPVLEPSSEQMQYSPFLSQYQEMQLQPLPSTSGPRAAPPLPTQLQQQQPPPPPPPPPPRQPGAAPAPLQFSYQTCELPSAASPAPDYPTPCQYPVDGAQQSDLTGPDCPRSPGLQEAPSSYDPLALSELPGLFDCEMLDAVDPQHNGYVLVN
# DDR2 (human), sequence (Q16832 whole entry, looked up): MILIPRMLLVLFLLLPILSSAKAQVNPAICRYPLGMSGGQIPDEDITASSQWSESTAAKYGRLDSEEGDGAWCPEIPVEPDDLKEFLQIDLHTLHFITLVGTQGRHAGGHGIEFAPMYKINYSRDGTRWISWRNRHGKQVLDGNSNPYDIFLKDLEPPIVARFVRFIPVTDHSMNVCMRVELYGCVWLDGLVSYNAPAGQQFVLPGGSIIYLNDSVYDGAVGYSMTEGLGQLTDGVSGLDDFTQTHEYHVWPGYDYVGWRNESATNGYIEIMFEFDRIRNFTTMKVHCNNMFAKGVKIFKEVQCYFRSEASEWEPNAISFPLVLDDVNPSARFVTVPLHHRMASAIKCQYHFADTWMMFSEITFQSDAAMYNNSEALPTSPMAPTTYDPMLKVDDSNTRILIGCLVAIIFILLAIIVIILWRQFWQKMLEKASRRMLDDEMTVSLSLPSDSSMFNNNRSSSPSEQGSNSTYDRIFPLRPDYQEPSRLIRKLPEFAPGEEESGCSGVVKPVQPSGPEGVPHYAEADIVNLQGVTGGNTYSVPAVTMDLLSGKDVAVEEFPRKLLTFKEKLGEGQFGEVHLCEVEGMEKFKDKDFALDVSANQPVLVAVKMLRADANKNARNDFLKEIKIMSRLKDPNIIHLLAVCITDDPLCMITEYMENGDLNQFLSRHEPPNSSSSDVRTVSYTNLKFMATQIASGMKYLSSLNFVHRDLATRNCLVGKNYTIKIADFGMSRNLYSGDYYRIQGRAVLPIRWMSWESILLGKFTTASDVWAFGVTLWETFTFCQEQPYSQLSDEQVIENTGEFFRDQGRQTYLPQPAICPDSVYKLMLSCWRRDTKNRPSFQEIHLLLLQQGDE
# PAK3 (human), sequence (O75914 whole entry, looked up): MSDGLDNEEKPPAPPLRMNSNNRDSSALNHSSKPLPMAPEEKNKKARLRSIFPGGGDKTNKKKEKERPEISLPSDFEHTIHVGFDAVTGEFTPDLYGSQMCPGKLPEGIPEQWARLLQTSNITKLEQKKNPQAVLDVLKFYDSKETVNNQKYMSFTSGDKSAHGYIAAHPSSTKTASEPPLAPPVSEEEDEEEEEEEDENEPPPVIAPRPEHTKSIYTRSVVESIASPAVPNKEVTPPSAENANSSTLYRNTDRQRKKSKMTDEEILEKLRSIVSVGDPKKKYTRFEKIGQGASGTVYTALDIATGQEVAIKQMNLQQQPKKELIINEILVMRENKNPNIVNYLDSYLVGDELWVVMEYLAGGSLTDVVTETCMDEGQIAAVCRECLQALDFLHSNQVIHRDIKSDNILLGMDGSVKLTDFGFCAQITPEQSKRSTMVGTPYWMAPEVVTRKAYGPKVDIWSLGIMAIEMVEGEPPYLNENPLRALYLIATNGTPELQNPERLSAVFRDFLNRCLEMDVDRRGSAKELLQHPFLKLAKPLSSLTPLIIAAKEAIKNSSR
# MAP2K1 (human), sequence (Q02750 whole entry, looked up): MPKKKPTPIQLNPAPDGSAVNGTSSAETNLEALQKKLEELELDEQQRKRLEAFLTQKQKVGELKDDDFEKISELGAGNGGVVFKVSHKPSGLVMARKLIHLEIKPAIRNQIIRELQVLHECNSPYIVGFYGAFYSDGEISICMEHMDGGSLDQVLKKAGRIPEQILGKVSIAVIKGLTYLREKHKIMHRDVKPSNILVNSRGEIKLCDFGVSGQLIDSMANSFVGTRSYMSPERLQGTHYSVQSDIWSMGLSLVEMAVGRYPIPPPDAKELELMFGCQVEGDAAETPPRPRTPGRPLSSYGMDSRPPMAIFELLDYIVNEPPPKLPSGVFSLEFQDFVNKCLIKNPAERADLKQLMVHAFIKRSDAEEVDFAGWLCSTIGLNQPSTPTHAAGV
# ACVR2B (human), sequence (Q13705 whole entry, looked up): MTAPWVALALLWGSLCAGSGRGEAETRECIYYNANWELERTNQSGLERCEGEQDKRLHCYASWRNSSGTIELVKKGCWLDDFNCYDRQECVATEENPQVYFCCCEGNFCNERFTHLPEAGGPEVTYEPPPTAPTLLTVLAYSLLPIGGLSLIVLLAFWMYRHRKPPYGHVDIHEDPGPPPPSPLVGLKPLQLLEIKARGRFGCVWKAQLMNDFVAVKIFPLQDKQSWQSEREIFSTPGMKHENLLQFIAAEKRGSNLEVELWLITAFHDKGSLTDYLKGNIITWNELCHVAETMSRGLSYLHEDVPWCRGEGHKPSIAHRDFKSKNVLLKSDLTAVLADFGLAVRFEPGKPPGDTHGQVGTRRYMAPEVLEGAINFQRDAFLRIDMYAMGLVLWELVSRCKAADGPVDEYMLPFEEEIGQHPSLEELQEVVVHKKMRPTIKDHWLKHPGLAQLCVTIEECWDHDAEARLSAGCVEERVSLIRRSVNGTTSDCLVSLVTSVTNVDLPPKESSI
# EPHB3 (human), sequence (P54753 whole entry, looked up): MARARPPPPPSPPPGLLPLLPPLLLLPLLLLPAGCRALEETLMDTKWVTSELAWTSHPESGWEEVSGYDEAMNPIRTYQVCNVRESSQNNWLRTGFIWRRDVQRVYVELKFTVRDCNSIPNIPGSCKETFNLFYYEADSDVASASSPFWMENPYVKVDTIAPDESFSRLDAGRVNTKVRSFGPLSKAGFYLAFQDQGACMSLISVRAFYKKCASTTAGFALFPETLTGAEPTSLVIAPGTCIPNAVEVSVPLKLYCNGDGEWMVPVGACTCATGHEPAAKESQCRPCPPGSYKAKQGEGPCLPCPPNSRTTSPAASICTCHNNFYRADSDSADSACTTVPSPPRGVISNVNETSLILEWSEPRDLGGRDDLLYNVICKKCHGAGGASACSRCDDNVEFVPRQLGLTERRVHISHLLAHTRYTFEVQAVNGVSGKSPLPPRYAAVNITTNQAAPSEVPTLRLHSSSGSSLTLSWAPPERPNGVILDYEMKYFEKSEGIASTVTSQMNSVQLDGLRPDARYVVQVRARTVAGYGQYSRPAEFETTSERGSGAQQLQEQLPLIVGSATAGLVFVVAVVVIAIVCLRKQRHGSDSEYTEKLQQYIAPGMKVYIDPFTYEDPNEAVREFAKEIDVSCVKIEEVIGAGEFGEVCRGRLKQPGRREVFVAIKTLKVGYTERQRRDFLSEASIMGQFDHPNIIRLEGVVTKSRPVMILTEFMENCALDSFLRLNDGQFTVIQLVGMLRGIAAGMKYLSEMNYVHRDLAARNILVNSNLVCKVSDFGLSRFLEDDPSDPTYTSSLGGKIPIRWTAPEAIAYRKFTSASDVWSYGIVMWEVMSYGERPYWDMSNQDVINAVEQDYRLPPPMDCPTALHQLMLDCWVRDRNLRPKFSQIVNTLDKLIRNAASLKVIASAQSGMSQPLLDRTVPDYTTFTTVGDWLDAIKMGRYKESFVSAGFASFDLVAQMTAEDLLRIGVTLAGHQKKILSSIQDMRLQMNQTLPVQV
# MAPK4 (human), sequence (P31152 whole entry, looked up): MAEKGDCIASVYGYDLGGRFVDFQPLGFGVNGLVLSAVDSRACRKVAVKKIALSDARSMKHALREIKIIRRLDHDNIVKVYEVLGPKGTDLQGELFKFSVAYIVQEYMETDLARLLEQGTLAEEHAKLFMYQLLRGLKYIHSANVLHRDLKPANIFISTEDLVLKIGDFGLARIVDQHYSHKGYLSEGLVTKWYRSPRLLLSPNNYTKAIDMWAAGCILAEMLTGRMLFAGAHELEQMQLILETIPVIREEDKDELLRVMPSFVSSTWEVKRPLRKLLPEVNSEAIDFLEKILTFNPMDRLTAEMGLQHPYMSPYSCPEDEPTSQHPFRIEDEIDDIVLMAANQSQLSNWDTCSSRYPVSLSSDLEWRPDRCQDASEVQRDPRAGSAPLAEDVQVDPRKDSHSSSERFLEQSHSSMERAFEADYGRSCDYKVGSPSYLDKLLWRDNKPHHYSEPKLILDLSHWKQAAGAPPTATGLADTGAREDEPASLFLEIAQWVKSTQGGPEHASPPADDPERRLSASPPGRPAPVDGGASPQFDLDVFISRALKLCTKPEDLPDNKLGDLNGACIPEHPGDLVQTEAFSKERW
Compound,"kinase still bound, per cent of control [1] [%]","kinase still bound, per cent of control [2] [%]","kinase still bound, per cent of control [3] [%]","kinase still bound, per cent of control [4] [%]","kinase still bound, per cent of control [5] [%]","kinase still bound, per cent of control [6] [%]","kinase still bound, per cent of control [7] [%]","kinase still bound, per cent of control [8] [%]","kinase still bound, per cent of control [9] [%]","kinase still bound, per cent of control [10] [%]","kinase still bound, per cent of control [11] [%]","kinase still bound, per cent of control [12] [%]","kinase still bound, per cent of control [13] [%]","kinase still bound, per cent of control [14] [%]","kinase still bound, per cent of control [15] [%]","kinase still bound, per cent of control [16] [%]","kinase still bound, per cent of control [17] [%]","kinase still bound, per cent of control [18] [%]","kinase still bound, per cent of control [19] [%]","kinase still bound, per cent of control [20] [%]",other results
COc1cc(C(=O)NC2CCN(C)CC2)ccc1Nc1ncc2c(n1)N(C1CCCC1)C(C)CC(=O)N2C (stereo not given),100,100,100,100,100,100,100,100,3.8,100,100,100,100,100,100,100,6.2,100,24,100,"kinase still bound, per cent of control [21]: 100%; kinase still bound, per cent of control [22]: 26%; kinase still bound, per cent of control [23]: 32%; kinase still bound, per cent of control [24]: 100%; kinase still bound, per cent of control [25]: 100%; kinase still bound, per cent of control [26]: 100%; kinase still bound, per cent of control [27]: 100%; kinase still bound, per cent of control [28]: 100%; kinase still bound, per cent of control [29]: 100%; kinase still bound, per cent of control [30]: 100%; kinase still bound, per cent of control [31]: 100%; kinase still bound, per cent of control [32]: 17%; kinase still bound, per cent of control [33]: 100%; kinase still bound, per cent of control [34]: 100%; kinase still bound, per cent of control [35]: 100%; kinase still bound, per cent of control [36]: 100%; kinase still bound, per cent of control [37]: 100%; kinase still bound, per cent of control [38]: 100%; kinase still bound, per cent of control [39]: 31%; kinase still bound, per cent of control [40]: 100%"
Cc1cc([C@@H](C)Nc2ccccc2C(=O)O)c2nc(N3CCOCC3)cc(=O)n2c1,98,98,100,100,81,91,100,95,75,81,82,100,100,91,94,100,100,100,100,100,"kinase still bound, per cent of control [21]: 0.35%; kinase still bound, per cent of control [22]: 95%; kinase still bound, per cent of control [23]: 100%; kinase still bound, per cent of control [24]: 91%; kinase still bound, per cent of control [25]: 100%; kinase still bound, per cent of control [26]: 97%; kinase still bound, per cent of control [27]: 83%; kinase still bound, per cent of control [28]: 100%; kinase still bound, per cent of control [29]: 100%; kinase still bound, per cent of control [30]: 100%; kinase still bound, per cent of control [31]: 100%; kinase still bound, per cent of control [32]: 100%; kinase still bound, per cent of control [33]: 100%; kinase still bound, per cent of control [34]: 100%; kinase still bound, per cent of control [35]: 70%; kinase still bound, per cent of control [36]: 94%; kinase still bound, per cent of control [37]: 84%; kinase still bound, per cent of control [38]: 89%; kinase still bound, per cent of control [39]: 100%; kinase still bound, per cent of control [40]: 100%"
C=CC(=O)Nc1cc(NC(=O)c2ccc(C)c(NC(=O)c3ccno3)c2)cc(C(F)(F)F)c1,100,100,100,100,78,96,100,63,100,82,100,100,86,84,51,100,95,100,69,100,"kinase still bound, per cent of control [21]: 100%; kinase still bound, per cent of control [22]: 80%; kinase still bound, per cent of control [23]: 63%; kinase still bound, per cent of control [24]: 100%; kinase still bound, per cent of control [25]: 100%; kinase still bound, per cent of control [26]: 93%; kinase still bound, per cent of control [27]: 40%; kinase still bound, per cent of control [28]: 99%; kinase still bound, per cent of control [29]: 96%; kinase still bound, per cent of control [30]: 96%; kinase still bound, per cent of control [31]: 100%; kinase still bound, per cent of control [32]: 96%; kinase still bound, per cent of control [33]: 100%; kinase still bound, per cent of control [34]: 88%; kinase still bound, per cent of control [35]: 28%; kinase still bound, per cent of control [36]: 100%; kinase still bound, per cent of control [37]: 97%; kinase still bound, per cent of control [38]: 87%; kinase still bound, per cent of control [39]: 100%; kinase still bound, per cent of control [40]: 100%"
